Article PMC10449621, “Engineering cellular communication between light-activated synthetic cells and bacteria” (Nature Chemical Biology, 2023)
“And” between values parts separate entries of the source, which are not always exact repeats. Equal entries are not always repeated.

What was measured:
[1] = system: BjaRWT (B0034|CTG) receiver cells; experiment: BjaR receiver cell AHSL dose-response (gfp reporter, plate reader); type: cell-based, E. coli XL10-Gold
Excerpt: These findings are consistent with the predicted translation initiation rates of the respective sequences—translation from the BBa_B0033 RBS provides 1% of protein yield compared to the BBa_B0034 RBS, just as an CTG start codon provides 1% of the protein yield compared to an ATG start codon[30],[31]. This also offers support as to why the ON-state gfp expression level increased in variants with a tighter OFF-state; more cellular resources were available for GFP synthesis when comparatively fewer were allocated to BjaR synthesis. To elucidate the impact of the S107R variant on gene circuit performance, we introduced the S107R variant alone back into the bjaRWT gene, in the context of the BBa_B0033 RBS background.
The BjaR reporter plasmids were retransformed into E. coli XL10-Gold cells for each experiment. A single colony was used to inoculate 5 ml LB + Amp media and incubated at 37 °C, 225 r.p.m. overnight. Overnight cultures were diluted 1/250 or 1/500 in 5 ml M9 minimal media + Amp and incubated at 37 °C, 225 r.p.m. for 3 h and 45 min (until OD600 = ~0.075). Cultures were diluted down to OD600 = 0.05 with M9 minimal media + Amp, and 200 µl was added to wells of a 96-well plate containing 1 µl IV-HSL dissolved in DMSO or 1 µl BjaI CFPS reactions (IV-HSL concentrations obtained from serial dilution from 63.2 µM to 632 pM; final DMSO concentration = 0.5%). Cells were incubated at 37 °C, 800 r.p.m., in a thermomixer with a heated lid for 4 h. Fluorescence and OD600 were measured in a Tecan M1000 infinite plate reader (excitation, 488 nm; emission, 510 nm; bandwidth, 5 nm; gain, 101 and z position, 21,311 µm). The dose–response curves were fitted to the function indicated by Eq. (1), where a = maximal fluorescence output, b = basal fluorescence output, X = concentration of AHSL, GFP = fluorescence at the given condition, EC50 = AHSL at 50% maximal fluorescence output and h = hill coefficient. EC50 and h were derived using the nonlinear regression model based on Eq. (1), in MATLAB. A summary of the dose–response data is available in Supplementary Table 1.1 GFP=b+a−b/1+10^logEC50−X×h

[2] = system: BjaRS107R (B0034|CTG) receiver cells; experiment: IV-HSL biosynthesis by BjaI in bulk CFPS reactions, quantified with receiver cells; type: cell-based, E. coli XL10-Gold; conditions: 10 nM
Experimental: We first validated bjaI expression using bulk CFPS reactions containing (^35S)-methionine to visualize the newly synthesized protein. The full-length BjaI protein (25 kDa) was successfully translated, and its expression was not influenced by the presence of SAM and IV-CoA (Fig. 4b). To establish whether the BjaI was enzymatically active, CFPS reactions containing 80 µM IV-CoA and 300 µM SAM were incubated at 37 °C for 5 h, and then serially diluted and incubated with BjaRS107R (B0034|CTG) receiver cells. Indeed, IV-HSL was successfully synthesized within the CFPS reactions as the reaction mixture containing the complete set of components (bjaI DNA + SAM + IV-CoA) fully activated gfp expression in the receivers, while no fluorescence output was observed from CFPS reactions containing SAM and IV-CoA, but without bjaI DNA template (Fig. 4c,d). […] Similarly, on transferring this system inside GUVs, BjaI-producing synthetic cells also synthesized sufficient IV-HSL to fully activate gfp expression in BjaRS107R (B0033|ATG) receiver cells. […] The loss in specific activity between CFPS performed in bulk compared to inside GUVs was attributed to the loss of inner solution during emulsion phase transfer and when the GUVs ruptured, less efficient CFPS in GUVs compared to in bulk, and absence of gene expression in some GUVs.
In total, 3 µl CFPS reactions were prepared using PURExpress with 0.8 U µl^−1 murine RNase inhibitor, 5 ng µl^−1 linear bjaI DNA template and 300 µM SAM and 80 µM IV-CoA, as indicated. Reactions were incubated for 5 h at 37 °C using a thermal cycler and then serially diluted in Milli-Q H2O. In total, 1 µl of the samples was added to lidded Corning 96-well plates containing 200 µl BjaI receiver cells (pSB1A3 BjaRS107R (CTG) at OD600 = 0.05). Cells were grown at 37 °C, 800 r.p.m. in a thermomixer with a heated lid for 4 h. OD600 and fluorescence were measured using a Tecan infinite M1000 plate reader (Ex, 488 nm; Em, 510 nm; bandwidth, 5 nm; z position, 23,179 µm and gain, 101).

With `CC(C)CC(=O)N[C@H]1CCOC1=O` [IV-HSL, N-isovaleryl-L-homoserine lactone] the EC50 ([1]; Escherichia coli, IV-HSL-activated gfp expression) was 2.68 ± 0.48 nM, the hill coefficient ([1]; IV-HSL dose-response curve) was 1.41 and the GFP ([1]; Log([ASHL]) -6.5) was 43330 and 36104 and 38058. For the same compound, the Mean normalised fluorescence ([1]; Log([ASHL]) -6.5) was 201726, the Normalised fluorescence ([1]; Log([ASHL]) -6.5) was 210214 and 194525 and 200438 and the GFP ([1]; Log([ASHL]) -7) was 48602 and 34441 and 36003. For the same compound, the Mean normalised fluorescence ([1]; Log([ASHL]) -7) was 195635, the Normalised fluorescence ([1]; Log([ASHL]) -7) was 221814 and 183269 and 181822 and the GFP ([1]; Log([ASHL]) -7.5) was 42248 and 34562 and 36913. For the same compound, the Mean normalised fluorescence ([1]; Log([ASHL]) -7.5) was 179671, the Normalised fluorescence ([1]; Log([ASHL]) -7.5) was 188397 and 176029 and 174588 and the GFP ([1]; Log([ASHL]) -8) was 35155 and 35886 and 43108. The Mean normalised fluorescence ([1]; Log([ASHL]) -8) was 165401, the Normalised fluorescence ([1]; Log([ASHL]) -8) was 168235 and 168127 and 159840 and the GFP ([1]; Log([ASHL]) -8.5) was 36208 and 37675 and 33945. For the same compound, the Mean normalised fluorescence ([1]; Log([ASHL]) -8.5) was 139606, the Normalised fluorescence ([1]; Log([ASHL]) -8.5) was 151871 and 150220 and 116729 and the Mean normalised fluorescence ([1]; Log([ASHL]) -9) was 82973.4. The Mean normalised fluorescence ([1]; Log([ASHL]) -9.5) was 25740.3, the Mean normalised fluorescence ([1]; Log([ASHL]) -10) was 6739.8 and the GFP ([1]; Log([ASHL]) -10.5) was 896 and 846 and 722. The Mean normalised fluorescence ([1]; Log([ASHL]) -10.5) was 2692.26, the Normalised fluorescence ([1]; Log([ASHL]) -10.5) was 2989.77 and 2763.44 and 2323.58 and the GFP ([1]; Log([ASHL]) -11) was 668 and 631 and 690. The Mean normalised fluorescence ([1]; Log([ASHL]) -11) was 2167.6, the Normalised fluorescence ([1]; Log([ASHL]) -11) was 2233.16 and 2007.95 and 2261.7 and the GFP ([1]; Log([ASHL]) -11.5) was 630 and 671 and 595. For the same compound, the Mean normalised fluorescence ([1]; Log([ASHL]) -11.5) was 2035.58, the Normalised fluorescence ([1]; Log([ASHL]) -11.5) was 2037.65 and 2202.61 and 1866.48 and the GFP [2] was 45669 and 34133 and 41279. For the same compound, the Mean normalised fluorescence [2] was 170055 and the Normalised fluorescence [2] was 160035 and 169389 and 180741.
